Tests used:
Type in all cases: cell-based, human
senescent fibroblasts [1] = assay: SA β-gal activity assay (senescence-associated β-galactosidase kit)
Experimental: (§1) To determine whether the senescent cells subjected to the PDK1 inhibition are reverted to normal young cells, the PDX1 inhibitor BX-795 (Selleckchem) was applied to the senescent fibroblasts. Then, SA β-gal activity assay (senescence-associated β-galactosidase kit), wound healing assay, and fluorescence staining experiments were performed. Thus, the cell cycle change in the senescent cells based on PDK1 Inhibition was checked.
(§2) Specifically, cellular senescence was caused by exposing the cells for 7 days to culture conditions causing senescence, containing 100 ng/ml of IGF1, 100 ng/ml of doxorubicin, 10 % FBS, and 4.5 g/L of glucose. At this time, most of the cells turned senescent. Then, the PDK1 inhibitor was applied to the same culture condition for 7 days. Total 14 days of the application lapsed. […] Ki-67 expression was analyzed to evaluate the division activity of the cells and the results are shown in 4C.
(§3) In order to check whether the same result occurs when other PDK1 inhibitors are used, SA β-gal activity assay was performed in the same manner using PDK1 inhibitor 7. […] Therefore, the number of bluestained senescent cells as SA β-gal activity assay-positive and the total number of cells were counted using an optical microscope. […] In addition, fluorescence staining experiments were performed to check the expression of the cell proliferation marker ki-67.

senescent fibroblasts [2] = assay: wound healing assay; conditions: same senescence/inhibitor conditions; growth-condition medium for 7 days; FIG. 4B
Experimental: To determine whether the senescent cells subjected to the PDK1 inhibition are reverted to normal young cells, the PDX1 inhibitor BX-795 (Selleckchem) was applied to the senescent fibroblasts. Then, SA β-gal activity assay (senescence-associated β-galactosidase kit), wound healing assay, and fluorescence staining experiments were performed. Thus, the cell cycle change in the senescent cells based on PDK1 Inhibition was checked. Specifically, cellular senescence was caused by exposing the cells for 7 days to culture conditions causing senescence, containing 100 ng/ml of IGF1, 100 ng/ml of doxorubicin, 10 % FBS, and 4.5 g/L of glucose. At this time, most of the cells turned senescent. Then, the PDK1 inhibitor was applied to the same culture condition for 7 days. Total 14 days of the application lapsed. Then, the cells were treated with growth media free of IGF1, doxorubicin, or PDK1 inhibitor. The wound healing assay was performed under the same conditions. Ki-67 expression was analyzed to evaluate the division activity of the cells and the results are shown in 4C.

senescent fibroblasts [3] = assay: ki-67 fluorescence staining (cell division/proliferation marker)
Experimental: as §1, §2, §3

| Compound | SA β-gal as an indicator of senescent cells (senescent fibroblasts [1]; senescence induced 7 days with IGF1 100 ng/ml + doxorubicin 100 ng/ml, PDK1 inhibitor applied 7 days, assay one day after change to growth media, FIG. 4A) | cell rejuvenation ability of the senescent cells (wound healing) (senescent fibroblasts [2]) | ki-67 staining, cell division (senescent fibroblasts [3]; cells treated with growth medium at 7 days after the drug application, FIG. 4C) | reduction of SA β-gal stained cells compared with the PDK1 inhibitor non-treated group (senescent fibroblasts [1]; percentage of blue-stained senescent cells counted by optical microscope, statistically significant, FIG. 5A, 5B) [%] | increase of the number of ki-67 positive cells (senescent fibroblasts [3]; PDK1 inhibitor applied to senescent cells, FIG. 5C, 5D) [%] |
| --- | --- | --- | --- | --- | --- |
| O=C(NCCCNc1nc(Nc2cccc(NC(=O)N3CCCC3)c2)ncc1I)c1cccs1 [BX-795] | significantly reduced | normalized | cell division occurred in some of the cells | – | – |
| O=C(N[C@@H](COc1ccc2[nH]c(=O)[nH]c2c1)c1ccccc1)c1cccn(Cc2ccc(F)c(F)c2)c1=O [PDK1 inhibitor 7] | – | – | – | ≥ 40 | ≥ 20 |

Source: patent publication EP3643310B1, “COMPOSITION FOR REVERSE CONTROL OF CELLULAR SENESCENCE COMPRISING PDK1 INHIBITOR” (Korea Advanced Institute Of Science And Technology, priority 2018, dated 2020)
